From ChEMBL document CHEMBL3046345, “Synthesis of novel pyrazole and pyrimidine derivatives bearing sulfonamide moiety as antitumor and radiosensitizing agents” (Med Chem Res, 2012)

Key:
HepG2 [1] = assay: Potentiation of gamma-irradiation-induced cytotoxicity against Homo sapiens (human) HepG2 cells at 5 uM relative to control; assay type: functional
HepG2 [2] = assay: Potentiation of gamma-irradiation-induced cytotoxicity against Homo sapiens (human) HepG2 cells at 25 uM relative to control; assay type: functional
MCF7 = assay: Anticancer activity against Homo sapiens (human) MCF7 cells after 48 hr by SRB assay; assay type: functional, cell-based; conditions: MCF7, 48 h
HepG2 [3] = assay: Cytotoxicity against Homo sapiens (human) HepG2 cells at 25 uM relative to control; assay type: functional
HepG2 [4] = assay: Anticancer activity against Homo sapiens (human) HepG2 cells after 48 hr by SRB assay; assay type: functional, cell-based; conditions: HepG2, 48 h
HepG2 [5] = assay: Cytotoxicity against Homo sapiens (human) HepG2 cells at 40 uM relative to control; assay type: functional
HepG2 [6] = assay: Cytotoxicity against Homo sapiens (human) HepG2 cells at 12.5 uM relative to control; assay type: functional
HepG2 [7] = assay: Potentiation of gamma-irradiation-induced cytotoxicity against Homo sapiens (human) HepG2 cells at 12.5 uM relative to control; assay type: functional
HepG2 [8] = assay: Cytotoxicity against Homo sapiens (human) HepG2 cells at 5 uM relative to control; assay type: functional
HepG2 [9] = assay: Potentiation of gamma-irradiation-induced cytotoxicity against Homo sapiens (human) HepG2 cells at 40 uM relative to control; assay type: functional

For `NC1=NN(c2ccccc2)C(=O)/C1=C/Nc1ccc(S(=O)(=O)Nc2cnc3ccccc3n2)cc1`, the Activity (HepG2 [1]) was 57.1%, the Activity (HepG2 [2]) was 93.5% and the IC50 (MCF7) was 6.71 µM. For the same compound, the Activity (HepG2 [3]) was 76.15%, the IC50 (HepG2 [4]) was 3.21 µM and the Activity (HepG2 [5]) was 79.39%. It also gave an Activity (HepG2 [6]) of 65.3%, an Activity (HepG2 [7]) of 77.8% and an Activity (HepG2 [8]) of 40.36%. For the same compound, the Activity (HepG2 [9]) was 88.5%.

For `N=C1NN=C(N)/C1=C\Nc1ccc(S(=O)(=O)Nc2cnc3ccccc3n2)cc1`, the Activity (HepG2 [1]) was 53.6%, the Activity (HepG2 [2]) was 80.6% and the IC50 (MCF7) was 7.78 µM. The Activity (HepG2 [3]) was 73.2%, the IC50 (HepG2 [4]) was 3.22 µM and the Activity (HepG2 [5]) was 85.8%. For the same compound, the Activity (HepG2 [6]) was 55.27%, the Activity (HepG2 [7]) was 67% and the Activity (HepG2 [8]) was 18.15%. For the same compound, the Activity (HepG2 [9]) was 88.2%.

`Cc1cc(C)nc(NS(=O)(=O)c2ccc(-n3cc(C#N)c(=O)n(-c4ccccc4)c3=S)cc2)n1` showed an Activity (HepG2 [1]) of 47.2%, an Activity (HepG2 [2]) of 77.5% and an IC50 (MCF7) of 5.63 µM. For the same compound, the Activity (HepG2 [3]) was 62.2%, the IC50 (HepG2 [4]) was 3.49 µM and the Activity (HepG2 [5]) was 79.6%. The Activity (HepG2 [6]) was 49.12%, the Activity (HepG2 [7]) was 70.8% and the Activity (HepG2 [8]) was 19.98%. The Activity (HepG2 [9]) was 87.3%.

`NC1=NN(c2ccccc2)C(=O)/C1=C/Nc1ccc(S(=O)(=O)Nc2ccccn2)cc1` was tested, and the Activity (HepG2 [1]) was 62.1%, the Activity (HepG2 [2]) was 76.7% and the IC50 (MCF7) was 5.1 µM. For the same compound, the Activity (HepG2 [3]) was 66.9%, the IC50 (HepG2 [4]) was 3.49 µM and the Activity (HepG2 [5]) was 80.2%. The Activity (HepG2 [6]) was 57.82%, the Activity (HepG2 [7]) was 80.8% and the Activity (HepG2 [8]) was 39.49%. For the same compound, the Activity (HepG2 [9]) was 91.8%.

`Cc1cc(C)nc(NS(=O)(=O)c2ccc(N/C=C3/C(=N)N(c4ccccc4)N=C3N)cc2)n1` was tested, and the Activity (HepG2 [1]) was 75.69%, the Activity (HepG2 [2]) was 92.9% and the IC50 (MCF7) was 6.98 µM. It also gave an Activity (HepG2 [3]) of 74.3%, an IC50 (HepG2 [4]) of 3.76 µM and an Activity (HepG2 [5]) of 80.7%. It also gave an Activity (HepG2 [6]) of 64.14%, an Activity (HepG2 [7]) of 86% and an Activity (HepG2 [8]) of 47.94%. The Activity (HepG2 [9]) was 88.4%.
